PLA2 inhibition, CoA-IT inhibitory activity and IC50 data for two compounds are collected here from patent publication US5496855A, “Anti-inflammatory compounds” (SmithKline Beecham Corp., priority 1995, dated 1996).

Read-outs that look alike come from different tables or passages of the source. Where only a bound is given, the exact number is not on record here.

The target of one experiment is T1, rh Type II-14 kDa PLA2 (Homo sapiens, UniProt P14555).
T1 sequence (P14555 21-144): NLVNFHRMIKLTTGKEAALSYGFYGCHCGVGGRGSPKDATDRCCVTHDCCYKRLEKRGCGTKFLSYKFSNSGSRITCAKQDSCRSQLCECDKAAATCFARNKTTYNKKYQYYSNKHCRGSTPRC
The experiment in a line: Assay (a): Phospholipase A2 assay, acylhydrolysis of [3H]-AA-E. coli. The format is biochemical. As to conditions: generally tested at 50 μm levels. The method, then: Phospholipase A2 activity of rh Type II-14 kDa PLA2 or PLA2 semi-purified from human synovial joint fluid was measured by the acylhydrolysis of high specific activity (NEN)[^3 H]-AA-E. coli (0.5 mCi/5nmol PL Pi) as previously described in Marshall et at., J. Rheumatology, 18:1, pp59-65 (1991). […] [Predominately used herein was rh Type II 14 kDa PLA2, or alternatively bovine pancreatic PLA2 was also be used]. The reaction mixture ([…] total volume) contained 25 mM HEPES, pH 7.4, 150 mM NaCl, 5 mM CaCl2 and [^3 H]-AA-E. coli (low specific activity; 5-8 nmol PL Pi per assay). Assays were incelbated for a time predetermined to be on the linear portion of a time versus hydrolysis plot. Experiments were conducted with final % hydrolysis values ranging from 2% (400-1000 dpm) to 10% (2000-5000 dpm) acylhydrolysis after blank correction. Reactions were terminated by the addition of 1.0 mL tetrahydrofuran (THF). […] Radiolabel in this eluate was quantitated by liquid scintillation counting. Results were expressed as % of fatty acid hydrolyzed ([sample dpms-non-specific (blank) dpms/total dpms]×100) or specific activity which was calculated from hydrolysis values found in the linear portion of time versus % hydrolysis plots (pmol free fatty acid hydrolyzed mg/min). […]

The next experiment concerns CoA-IT. The experiment in a line: Assay (b): CoA-IT activity in U937 cell microsomes. It is filed as biochemical, human.
Another experiment relates to human monocytes. Briefly: Assay (f): stimulated eicosanoid (PGE2, LTC4) release by human monocytes. It is filed as cell-based. As to conditions: human monocyte cells, A23187. The method, then:
Leukocyte-rich leukopaks obtained from Biological Specialties (Lansdale, Pa.) are collected from male volunteers who are not taking anti-inflammatory drugs. Leukopaks are centrifuged (90×g for 15 min) twice to remove the platelet-rich plasma. The cell pellet is washed by centrifugation and are resuspended in HBSS without Ca^2+ or Mg^2+. Histopaque 1077 is layered under the cell suspension and centrifuged at 400×g for 30 min to obtain the buffy coat. The interfacial buffy coat, containing monocytes and lymphocytes, is removed and saved. The buffy coat is washed twice with HBSS without Ca^2+ or Mg^2+ by centrifugation. The cell pellet (4-6×10^8 cells/30 mls) is resuspended in iso-osmotic media (RPMI-1640, 10% heat inactivated fetal bovine serum (FBS), 0.2 mM L-glutamine, 2.5 mM HEPES) and layered over an equal volume of 46% Percol mixture (10×PBS/Percol; 9.25/0.75) and 54% iso-osmotic media and centrifuged for 30 min at 1000×g (Marshall and Roshak, Biochem. Cell Biol. 71: 331-339, 1993). The monocyte population located at the interface of the Percoll gradient is removed and washed twice in HBSS without Ca^2+ or Mg^2+.
Monocytes (5×10^6 /ml are incubated as a suspension in serum-free RPMI-1640 medium containing the vehicle DMSO (<1%) or drug for 30 min at 27° C. after which vehicle or stimuli is added for the indicated time. The stimulating agent is solubilized in DMSO and appropriate vehicle controls are included in all experiments. The amount of stimuli is chosen from the linear portion of a concentration versus product curve usually representing 60-80% maximal stimulation over the indicated incubation time at 37° C. (A23187, 1 μM, (15 min). The reaction is terminated by reduction of pH through addition of citric acid and centrifugation (10 min, 400×g, 4° C.). Cell viability is monitored before and after experiments using trypan blue exclusion. The cell-free media is decanted and stored at -70° C. until analyzed. Prostaglandin E2 and LTC4 are directly measured in cell-free media using enzyme immunoassay (EIA) kits purchased from Caymen Chemical Co. (Ann Arbor, Mich.) Sample or standard dilutions are made with appropriate media and analyzed in triplicate. Results are obtained by extrapolation from a standard curve prepared in the media and expressed as pg or ng/ml of sample.

[1] abbreviates: read-out: IC50 for LTC4 release.

Excerpt for CoA-IT: The following is a method to measure CoA-IT activity and the effects of compounds on CoA-IT activity. The assay is based upon mixing cellular material containing CoA-IT activity with a stable lyso phospholipid such as 1-alkyl-2-acyl-GPC and measuring the production of phospholipid product such as 1-alkyl-2-acyl-GPC occurring in the absence of added CoA or CoA-fatty acids.
Any inflammatory cell that contains high levels of CoA-IT activity can be used, such as neutrophils, macrophages or cell lines such as U937 cells. U937 cells were obtained from American Type Culture Collection and grown in RPMI-1640 media (Gibco, Grand Island, N.Y.) supplemented with 10% fetal bovine serum (Hyclone, Logan, Utah) at 37° C., 5% CO2. Cells were grown without differentiation (basal state) by any agent, such as dimethyl sulfoxide. As used herein, "inflammatory cells" include, but are not limited to neutrophils, macrophages, monocytes, lymphocytes, eosinophils, basophils, and mast cells.
Microsomes are prepared using standard techniques. […]
CoA-IT activity is measured in 1.5 ml centrifuge tubes in a total volume of 100 ul. […] An aliquot of the chloroform-extracted materials are separated, usually by TLC in chloroform/methanol/acetic acid/water (50:25:8:4, v/v), visualized by radioscanning (Bioscan) and the product, [3H ]1-alkyl-2-acyl-GPC, is scraped and quantified by liquid scintillation spectroscopy. […]

Consider `NC(=O)N(O)CCC(CSc1ccc(Cc2ccccc2)cc1)NC(=O)CCCCCCc1ccccc1` (racemic) [Example 1, N-[3-(7-phenylheptylamido)-4-(4-phenylmethyl)phenylthio]-butyl-N-hydroxy urea], for which the PLA2 inhibition result on rh Type II-14 kDa PLA2 was “positive PLA2 inhibition”. Moreover, the CoA-IT inhibitory activity entry in the experiment with CoA-IT (generally tested at 50 μm levels) was “positive CoA-IT inhibitory activity”. Moreover, the results for the IC50 in the experiment on human monocytes (setting [1]) and in the experiment on human monocytes (read-out: IC50 of PGE2 release) were 220 nM and less than 100 nM, respectively.

Turning to `N#CCC(CSc1ccc(Cc2ccccc2)cc1)NC(=O)CCCCCCc1ccccc1` (centres unmarked) [Example 2, [3-(7-Phenylheptylamido)-4-(4-phenylmethyl)phenylthio]butylnitrile], the PLA2 inhibition result at rh Type II-14 kDa PLA2 is listed as “positive PLA2 inhibition”. The CoA-IT inhibitory activity result in the experiment on CoA-IT (at levels of greater than 30 uM) is “did not demonstrate positive activity”. The IC50 (as a rule, the concentration at which inhibition is half-maximal) is 521 nM in the experiment on human monocytes (setting [1]) and roughly 100 nM in the experiment on human monocytes (read-out: IC50 of PGE2 release).
